# Measured values reported in ChEMBL document CHEMBL1154073, “Combining selectivity and affinity predictions using an integrated Support Vector Machine (SVM) approach: An alternative tool to discriminate between the human adenosine A(2A) and A(3) receptor pyrazolo-triazolo-pyrimidine antagonists binding sites” (Bioorg Med Chem, 2009).
# What was measured:
# [1] = target: Adenosine receptor A2a (Homo sapiens, UniProt P29274); assay: biochemical
# Description: Displacement of [3H]NECA from human adenosine A2A receptor expressed in CHO cells
# [2] = target: T1, Adenosine receptor A2b (Homo sapiens, UniProt P29275); assay: Antagonist activity at human adenosine A2B receptor expressed in CHO cells assessed as inhibition of NECA-induced adenylyl cyclase activity; assay type: functional, cell-based
# T1 sequence (P29275 whole entry): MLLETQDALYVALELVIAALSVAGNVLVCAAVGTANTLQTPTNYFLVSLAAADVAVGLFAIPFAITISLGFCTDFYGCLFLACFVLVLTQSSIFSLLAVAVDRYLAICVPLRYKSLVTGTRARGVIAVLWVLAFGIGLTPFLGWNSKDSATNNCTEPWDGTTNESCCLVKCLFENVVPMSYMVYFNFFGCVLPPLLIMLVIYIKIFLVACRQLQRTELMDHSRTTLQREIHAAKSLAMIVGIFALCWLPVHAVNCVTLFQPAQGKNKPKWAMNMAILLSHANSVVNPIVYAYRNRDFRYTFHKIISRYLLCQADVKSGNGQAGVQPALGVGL
# [3] = target: T2, Adenosine receptor A3 (Homo sapiens, UniProt P0DMS8); assay: Displacement of [3H]NECA from human adenosine A3 receptor expressed in CHO cells; assay type: cell-based
# T2 sequence (P0DMS8 whole entry): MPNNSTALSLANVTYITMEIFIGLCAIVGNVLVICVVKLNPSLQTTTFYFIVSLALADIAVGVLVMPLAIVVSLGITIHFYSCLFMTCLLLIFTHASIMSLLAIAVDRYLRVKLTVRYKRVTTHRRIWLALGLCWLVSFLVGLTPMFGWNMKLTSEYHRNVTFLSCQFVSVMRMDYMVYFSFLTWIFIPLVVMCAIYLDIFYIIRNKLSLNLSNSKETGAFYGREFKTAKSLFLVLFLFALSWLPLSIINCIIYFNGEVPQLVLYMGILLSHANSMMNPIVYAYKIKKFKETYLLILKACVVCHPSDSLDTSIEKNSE
# [4] = target: T3, Adenosine receptor A1 (Homo sapiens, UniProt P30542); assay: Displacement of [3H]CCPA from human adenosine A1 receptor expressed in CHO cells; assay type: cell-based
# T3 sequence (P30542 whole entry): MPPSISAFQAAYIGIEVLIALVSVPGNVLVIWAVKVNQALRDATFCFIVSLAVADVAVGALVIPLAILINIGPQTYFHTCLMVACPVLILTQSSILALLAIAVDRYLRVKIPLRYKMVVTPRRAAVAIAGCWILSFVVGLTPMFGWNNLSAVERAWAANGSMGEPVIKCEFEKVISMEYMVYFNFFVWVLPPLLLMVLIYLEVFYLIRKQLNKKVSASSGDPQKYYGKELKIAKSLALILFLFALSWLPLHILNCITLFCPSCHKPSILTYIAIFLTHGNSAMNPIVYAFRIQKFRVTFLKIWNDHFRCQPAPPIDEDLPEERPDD
# Adenosine receptor A2a, sequence (P29274 whole entry): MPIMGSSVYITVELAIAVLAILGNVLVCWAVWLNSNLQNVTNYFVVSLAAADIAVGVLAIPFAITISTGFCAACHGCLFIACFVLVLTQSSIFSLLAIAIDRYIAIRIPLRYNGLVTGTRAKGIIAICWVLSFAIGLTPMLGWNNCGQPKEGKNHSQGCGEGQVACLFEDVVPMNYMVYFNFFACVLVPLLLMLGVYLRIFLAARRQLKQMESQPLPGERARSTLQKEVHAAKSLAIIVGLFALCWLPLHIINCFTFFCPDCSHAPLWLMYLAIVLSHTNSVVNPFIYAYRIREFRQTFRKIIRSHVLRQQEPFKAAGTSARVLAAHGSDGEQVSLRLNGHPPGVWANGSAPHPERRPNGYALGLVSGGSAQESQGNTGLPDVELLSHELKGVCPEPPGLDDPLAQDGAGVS
Compound,Ki [1],IC50 [2],Ki [3],Ki [4]
O=C(Cc1ccc(-c2ccccc2)cc1)Nc1nc2nn(CCCc3ccccc3)cc2c2nc(-c3ccco3)nn12,256 nM,> 100000 nM,410 nM,1170 nM
O=C(Cc1ccc(Cl)cc1)Nc1nc2nn(CCCc3ccccc3)cc2c2nc(-c3ccco3)nn12,89.9 nM,> 10000 nM,30.5 nM,256 nM
O=C(Cc1cccc(Cl)c1)Nc1nc2nn(CCCc3ccccc3)cc2c2nc(-c3ccco3)nn12,182 nM,50000 nM,110 nM,605 nM
O=C(Cc1c(Cl)cccc1Cl)Nc1nc2nn(CCCc3ccccc3)cc2c2nc(-c3ccco3)nn12,186 nM,> 10000 nM,601 nM,786 nM
